Test results taken from patent US10426388B2, “Prediction of tumor recurrence by measuring oxygen saturation” (THE GENERAL HOSPITAL CORPORATION, priority 2014, dated 2019).
“And” between values parts separate entries of the source, which are not always exact repeats. Identical values can stand only once. “Also recorded” adds a separate entry of the source.

Assays:
tumor = assay: Tumor hypoxia/oxygenation after irinotecan detected by photoacoustic imaging; assay type: in vivo
subcutaneous U87 tumors [1] = assay: Photoacoustic imaging of tumor StO2 and HbT before and after BPD-PDT; assay type: in vivo, mice
Description: StO2 and HbT content were measured in both the 1-hr DLI responding group and 3-hr DLI (nonresponders) group of mice (n=6 per group) at 4 time points (before PDT (Pre-PDT), immediately post-PDT, 6-hrs and 24-hrs post-PDT) to determine if PAI could predict treatment response. FIG. 7A and FIG. 7B show representative images of the change in StO2 and HbT content at various time points in a responding and non-responding tumor respectively. Ultrasound imaging identified region of interest (green ROI in FIGS. 7A and 7B is the tumor region). FIG. 7C and FIG. 7D represent the average of StO2 values and HbT values in the tumor ROI from ˜350 B-scans per mouse (6 mice in each group, ˜55-75 B-scans per 3D tumor volume). […] This phenomena is in agreement with the studies by Wang et al. and is attributed to cell death and a decrease in the metabolic consumption of oxygen in the tumor area. Wang et al., Cancer Research, 64(20):7553-61 (2004).
(§1) Animal Model: All animal experiments were approved by the Subcommittee on Research Animal Care of Massachusetts General Hospital. Female athymic Swiss nude mice (Cox, Cambridge, Mass.), 8-10 weeks old, were anesthetized with isoflurane USP (Baxter, Deerfield, Ill.) and inoculated subcutaneously with 3×10^6 U87 cells in 300 μL, of Matrigel (BD Bioscience, San Jose, Calif.). Tumor volumes were measured using calipers by two researchers separately. Tumor volume was calculated using the formula; π/6×Length×Width×Height and photographs of the tumors were obtained.
(§2) PDT Treatment: Mice were injected intravenously with 0.5 mg/kg of BPD-MA, then PDT was performed as follows. Mice were placed under the laser light source and covered with black cloth except tumor area. 1 or 3-hrs post injection, mice were irradiated with 100 J/cm^2 using a 690 nm laser diode source (Model 7401; Intense, North Brunswick, N.J.) at a fluence rate of 100 mW/cm^2 as measured via a VEGA laser power energy meter (Ophir Laser Measurement Group, LLC).
Ultrasound and Photoacoustic Imaging: Image acquisition and quantitation was performed using the ultrasound and photoacoustic imaging system (Vevo LAZR, FUJIFILM VisualSonics, Inc.). Light generated from a tunable laser operating at either 750 nm or 850 nm was delivered through fiber optic bundles integrated into a linear array transducer (LZ-250, 21 MHz). The Oxy-Hemo feature of the Vevo LAZR software was used to acquire the oxygen-saturation images. Mice were imaged under isoflurane. Physiological status (ECG, respiration, and body temperature) of the mice was closely monitored during image acquisition sessions. 3D ultrasound and photoacoustic images were acquired at a step size of 0.152 mm. The Vevo LAZR workstation software was utilized to mark the tumor region of interest and obtain the StO2 and HbT values for every B-scan. The workstation allowed export of the raw data. The raw data is processed using customized MATLAB routines and integrated with 3D visualization software AMIRA to obtain the prediction maps.

[2] = Photobleaching of BPD in phantom tubes by photoacoustic imaging (fluorescence before/after PAI); assay type: physicochemical; conditions: fluorescence at 690 nm
Description: The FDA approved photosensitizer Benzoporphryin derivative (BPD-MA) (Aveline et al., Photochemistry and Photobiology, 59(3):328-35 (1994)) with absorption peaks at […] was used for all PDT experiments. To achieve better depth of light penetration, 690 nm light was used for PDT. PAI was performed at 750 nm and 850 nm wavelength illumination to deduce StO2 from the oxygenated and deoxygenated hemoglobin signal as described by Needles et al. Needles et al., IEEE Trans Ultrason Ferroelectr Freq Control. 60(5):888-97 (2013). At these wavelengths, the absorbance of BPD is minimal (FIG. 5A). PAI was performed using pulsed nanosecond laser (10 nsec pulse width) illumination. […] Fluorescence imaging on the tubes were performed using a Maestro imaging system (CRI Inc.) with an excitation at 405 nm and emission at 690 nm.
Fluorescence imaging: Fluorescence images of two phantom tube (500 um inner diameter) containing phosphate buffered saline (PBS) and liposomal BPD were acquired using a CRi Maestro system. […] Fluorescence images at 690 nm were acquired. A custom Matlab routine was used to quantify fluorescence signals in the tubes. […] Fluorescence image of the tubes were acquired and the tubes were again irradiated with laser of the Vevo LAZR system operating at 690 nm (10 ns pulse width at 10 Hz, 44.5 mJ/cm^2 fluence). […]

subcutaneous U87 tumors [3] = assay: Validation of tumor hypoxia with pimonidazole/CD31 immunofluorescence after BPD-PDT; assay type: in vivo, mice; conditions: 1-hr DLI (responding group) compared with 3-hr DLI (non-responding) group
Source text: The inventors next validated the hypoxic conditions observed in photoacoustic images with pimonidazole stain for hypoxia. Gerling et al., Theranostics, 4(6):604-13 (2014). Tumors were sectioned in a similar orientation as the imaging cross-section. CD31 stain was utilized to depict the tumor vasculature while pimonidazole stained the hypoxic regions. In the 1-hr DLI group (FIGS. 8A-4D), Immunofluorescence (IF) images show hypoxia adjacent to the vasculature depicted by the CD31 stain. The hypoxia is due to the vascular damage caused by PDT and disruption of the blood flow in these vessels. Zoomed images of the H&E stain of the adjacent cross section show vascular congestions. […] It is also to be noted that the fluorescence of the pimonidazole stain is stronger in the 1-hr DLI (responding group) tumor than in the 3-hr DLI (non-responding) group given the severe hypoxic conditions created by PDT.
Immunohistochemistry: An overview of the immunofluorescence staining protocol used in this study is published previously by the inventors. […] The slides were washed in PBS and secondary antibody (Donkey Anti-Goat IgG NL493 Affinity Purified PAb (R&D systems Inc) was applied for 2-hrs at room temperature. Finally the slides were washed and sealed with coverslip. A whole slide scanning fluorescence imaging system (Hamamatsu NanoZoomer 2.0-RS) at 40× magnification was used to image the slides.

subcutaneous U87 tumors [4] = assay: Longitudinal volume monitoring of subcutaneous U87 tumors after BPD-PDT; assay type: in vivo, mice
Source text: Chen et al., Int J Radiat Oncol Biol Phys., 61(4):1216-26 (2005); Chen et al., Crit Rev Eukaryot Gene Expr., 16(4):279-305 (2006). It was postulated in previous work that at 1-hr the PS localizes to both cellular and vascular compartments of the tumor while at 3-hrs, most of the PS is extra vascular and primarily cellular therefore less likely to impact the tumor oxygenation status. Iinuma et al., Cancer Research, 59(24):6164-70 (1999). […] Amongst the mice that underwent PDT with 1-hr DLI, there was no regrowth for ˜two weeks and at that point 35% of the mice started to show recurrence and an increase in tumor volume (FIG. 6, dashed line), while 65% mice had no palpable tumor 30 days post therapy (FIG. 6, solid line). To test if PAI could monitor the changes in StO2 in the tumor due to PDT, The inventors designated the 1-hr DLI group with a sustained absence of palpable tumors up to 30 days post treatment (FIG. 6, triangles joined by solid line) as the “PDT responding group” and the mice in the 3-hr DLI group (FIG. 6, squares joined by solid line) were considered the “PDT non-responding group”.
as §1, §2

[5] = responding 1-hr DLI group, 6-hrs post-PDT
[6] = responding 1-hr DLI group, 24-hrs post-PDT

CCc1c2c(nc3ccc(OC(=O)N4CCC(N5CCCCC5)CC4)cc13)-c1cc3c(c(=O)n1C2)COC(=O)[C@]3(O)CC [irinotecan]
tumor oxygenation (tumor; after irinotecan treatment, photoacoustic imaging): increases tumor oxygenation
levels of hypoxia (tumor; from 1 to 24 hours after treatment): steadily increasingly decrease

benzoporphyrin derivative monoacid ring-A [BPD]
HbT value versus pre-PDT value (subcutaneous U87 tumors [1]; 1-hr DLI group, 6-hrs post-PDT): significantly higher
StO2 immediately post-PDT versus pre-PDT (subcutaneous U87 tumors [1]; 1-hr DLI group, p<0.001): increase in oxygenation
HbT signal at 6-hrs and 24-hrs post-PDT (subcutaneous U87 tumors [1]; 3-hr DLI group): no statistical difference
StO2 24-hrs post-PDT versus pre-PDT (subcutaneous U87 tumors [1]; 3-hr DLI group): No statistically significant difference
StO2 immediately post-PDT versus pre-PDT (subcutaneous U87 tumors [1]; 3-hr DLI group): no statistically significant difference
change in StO2 compared to pre-PDT StO2 value (subcutaneous U87 tumors [1]; 3-hr DLI group, 6-hrs post-PDT): ~18%
StO2 (subcutaneous U87 tumors [1]; non-responding 3-hr DLI group, 6-hrs post-PDT): 47.6%±13.4%
StO2 (subcutaneous U87 tumors [1]; non-responding 3-hr DLI group, 24-hrs post-PDT): 55.3%±11.6%
StO2 (subcutaneous U87 tumors [1]; [5]): 2.97±1.6% and 2.9%±1.6%
decrease in StO2 relative to Pre-PDT value (subcutaneous U87 tumors [1]; [5]): ~95% and ~94.3%
StO2 (subcutaneous U87 tumors [1]; [6]): 8.03%±4.13%
decrease in StO2 relative to pre-PDT value (subcutaneous U87 tumors [1]; [6]): ~85% and ~84.8%
BPD fluorescence after PAI (photobleaching) ([2]; PAI at 690 nm): significant decrease in the fluorescence; also recorded: reduced fluorescence
BPD fluorescence signal after PAI compared to pre-imaging value ([2]; PAI at 750 nm followed by 850 nm pulsed laser irradiation): no significant difference; also recorded: no significant change
fluorescence of the pimonidazole stain (hypoxia), 1-hr DLI tumor versus 3-hr DLI tumor (subcutaneous U87 tumors [3]): stronger
mice showing recurrence (local tumor recurrence) (subcutaneous U87 tumors [4]; 1-hr DLI PDT): ~35%
time without regrowth (subcutaneous U87 tumors [4]; 1-hr DLI PDT): two weeks
mice with no palpable tumor (subcutaneous U87 tumors [4]; 1-hr DLI PDT, 30 days post therapy): 65%
increase in tumor volume (subcutaneous U87 tumors [4]; 3-hr DLI group, three weeks following PDT, 0.5 mg/kg BPD, 100 J/cm^2): approximately six-fold
tumor volume difference versus no-treatment group (subcutaneous U87 tumors [4]; 3-hr DLI group, p>0.05, Students t-test): no significant difference
